Values quoted from earlier work, collected in patent publication US20180263953A1, “Sustained Release Cannabinoid Formulations” (CannTab Therapeutics, Limited, priority 2016, published 2018).

What was measured:
[1] = after administration
[2] = low solubility and unknown permeability; NICHD/FDA Oral Formulations Platform Report 1

For CCCCCc1cc(O)c2c(c1)OC(C)(C)[C@@H]1CCC(C)=C[C@@H]21 [Dronabinol, (−)-trans-Δ^9-tetrahydrocannabinol], the “duration of appetite stimulant effect” value [1] is given as no less than 24 h and the BCS class [2] is given as “class 2 or class 4”.
